Data on seven compounds can be found in patent publication US20060110456A1, “Method for biocidal and/or biostatic treatment and compositions therefor” (NATIONAL UNIVERSITY OF SINGAPORE, priority 2004, published 2006).

Series [1] deals with marine bacteria (26 strains). The series is described as follows: Disk inhibition assay. It is filed as cell-based, marine bacteria isolated from Singapore fouling communities. The settings on record: for zone of inhibition at 25 µg/disc: 25 μg per disc; for zone of inhibition at 50 µg/disc: 50 μg per disc. The method, boiled down:
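Tablets or capsule powders suspended in sterile water at 2 mg ml^−1 and loaded onto disks; antibiotic discs (Amp, Ery, Str, Tet) served as comparison. Disks placed on swabbed lawns on Marine Agar, incubated overnight in the dark at 30° C. Zone of clearing diameter measured by calipers; three replicates on three occasions.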

Series [2] concerns Balanus amphitrite cyprids. The series is described as follows: whole plant or invertebrate. The settings on record: for IC50: Amphibalanus amphitrite, 24 h, read-out: ED50; for Prevention of settlement of barnacle cyprids: crude rank, best (1) to worst (8); for Effect on settlement of cyprids: in words. The procedure: Pharmaceuticals from the respective manufacturers were treated in the following way. A pill containing a known amount of active ingredient (as stated in product information) was ground in a mortar and pestle and a suspension of 2 mg ml^−1 generated in de-ionized water. This stock solution is stored at −20° C. in 4 ml amber screw cap vials. For the bioassays, 250 ul of stock solution is added to 10 ml of 1 um filtered seawater. This suspension was then sonicated for 10 minutes. Serial dilutions of this 50 μg ml^−1 seawater solution, or suspension, with seawater was done to generate the required range of concentrations.
This method is now standard practice for many antifouling screening of novel compounds.
Barnacle larvae from field-collected adults were reared on an algal mixture of 1:2:2 v/v of Rhodomonas salina, Tetraselmis suecica and Chaetoceros muelleri at 25° C., at approximately 5×10^5 cells per ml density. On this regime, larvae metamorphose to cyprids in 5 days.
Test solutions were made up to twice the required final concentration. 1 ml of test solution was added into each well, and cyprids were transferred into each well in 1 ml of seawater. Assays were done in triplicate. After 24 hours, larvae that had attached and metamorphosed were enumerated and the result expressed as percentage settlement. Larvae not attached were scored as not settled.
The Therapeutic Ratio, or LC50/EC50, is a way of assessing the effectiveness of the compound in relation to its toxicity. […] LC50 and EC50 estimates and the therapeutic ratio should be considered as working values providing an estimation of potency, rather than as absolutes.

The next series concerns barnacle nauplii. As to the kind of experiment: Toxicity of drugs under different light conditions and over time (stability in seawater). In kind it is in vivo, Balanus amphitrite. As to conditions: for Change in toxicity on ageing in seawater, 12L:12D condition: 12 h light and 12 h dark; for Effect of UV on drug toxicity to barnacle nauplii: UV for half an hour. The procedure:
Preliminary experiments were carried out to examine the chemical stability of the drugs. 25 ug ml^−1 seawater suspensions of the drugs were prepared, in 3 replicates per condition, 3 replicate tubes containing 15 ml per test tube per prepared for each treatment type. The treatments consisted of: • i. Dark condition: tubes were wrapped in aluminium foil and kept in the dark at all times • ii. 12L:12D condition, where the tubes were subject incubated in a plant growth chamber with light regime of 12 hours light and 12 hours dark. • iii. UV treated tubes were subject to UV for half an hour. […] Sets (1) & (2) were tested at week 0, 1, 2 and after 4 weeks. “UV” set is only assayed after UV treatment. […] Effect of UV

For series [3] the following is noted: cited from earlier work; for Solubility: in words.
[4] abbreviates: 25 ug ml^−1 seawater suspension, after 4 weeks.
[5] abbreviates: crude rank, best (1) to worst (8).
Setting [6] is: 25 ug ml^−1 seawater suspension.

≈ marks a conversion by molar mass, not a printed value. Where “and” joins values, the source holds several entries; their conditions need not be identical. Identical values can stand only once. Entries after “also recorded” stand apart in the source; their conditions may differ. Counter-ions that a name gives are not always drawn. Like-named read-outs stand apart in the source and are kept apart here.

For the compound `Cc1cc2c(s1)Nc1ccccc1N=C2N1CCN(C)CC1` [ZPX, olanzapine], the “Antibiotic activity against marine bacteria” value (“Antibiotic activity” for short) in series [1] was “did not have any appreciable antibiotic activity against marine bacteria and 8”. In series [2], the IC50 turned out to be 0.00231 µg/mL (≈ 0.00739 µM); the “Prevention of settlement of barnacle cyprids” value (“Prevention” for short) stood at 1; the “Effect on settlement of cyprids” value is “at concentrations less than 1 ug ml^−1, the cyprids were not killed but were not able to settle; also recorded: prevented the settlement of cyprids”. The Mortality of cyprids entry in series [2] (settlement bioassay wells) is recorded as “not very different from the control”. Further, the “Change in toxicity on ageing in seawater, 12L:12D condition” value (shortened to “Change in toxicity … 12L:12D condition”) in the series on barnacle nauplii (setting [4]) is “marked decrease in toxicity”. The Solubility entry in series [3] was “practically insoluble in water”.

Take `CN(C)C(=O)C(CCN1CCC(O)(c2ccc(Cl)cc2)CC1)(c1ccccc1)c1ccccc1` [IMD, Loperamide hydrochloride]: in series [1] (25 or 50 μg per disc, in words), the “Antibiotic activity” value is “did not have any appreciable antibiotic activity against marine bacteria”. The “Antibiotic activity” value in series [1] (setting [5]) came to 8. In series [2], the IC50 was > 5 µg/mL, the “Prevention” value stood at 8 and the “Effect on settlement of cyprids” value is on record as “not effective against cyprids”. Further, the Solubility entry in series [3] is given as “slightly soluble in water”.

In the case of `CN1CCN(C(c2ccccc2)c2ccccc2)CC1` [CYZ, Cyclizine hydrochloride], the “Antibiotic activity” value in series [1] (25 or 50 μg per disc, in words) is “did not have any appreciable antibiotic activity against marine bacteria”. In series [1] (setting [5]), the “Antibiotic activity” value came to 8. In addition, in series [2], the IC50 was 0.156 µg/mL and the “Prevention” value is reported as 4. Further, in the series with barnacle nauplii (other studies carried out by the group), the “Stability under UV and in seawater” value is “does not breakdown under UV and remains stable after four months in seawater”. The Solubility entry in series [3] was “soluble in water”.

What is called zone of inhibition is the size of the clear area around the sample on an inoculated plate. Lower therefore signals little suppression of growth. For the compound `CNCCC(Oc1ccc(C(F)(F)F)cc1)c1ccccc1` (stereo not drawn) [PZC, fluoxetine hydrochloride], the “Activity against the three Vibrio strains tested” value in series [1] was “exhibited activity against the three Vibrio strains tested”. The figures for the “Antibiotic activity” value in series [1] and in series [1] (setting [5]) were “strongest activity” and 2, respectively. Moreover, the “Number of strains inhibited out of 26 strains” value in series [1] came out at 23. The “Strains showing no inhibition (of 26)” value in series [1] is recorded as “only strain 6 was not inhibited”. In addition, the zone of inhibition at 25 µg/disc in series [1] (strain 1 (Rhodovulum)) is < 5 mm; in series [1] (strain 2 (Erythrobacter)) it was 10 to 19 mm; in series [1] (strain 3 (Erythrobacter)), 10 to 19 mm; in series [1] (strain 4 (Bacillus)) it was 10 to 19 mm; in series [1] (strain 6 (Vibrio)), < 5 mm; in series [1] (strain 7 (Vibrio)), < 5 mm. The zone of inhibition at 25 µg/disc in series [1] (strain 8 (Bacillus)), in series [1] (strain 9 (Bacillus)), in series [1] (strain 10 (Halobacillus)), in series [1] (strain 11 (Pseudomonas)), in series [1] (strain 12 (Gordonia)) and in series [1] (strain 13 (Bacillus)) was 10 to 19 mm in each case. The zone of inhibition at 25 µg/disc in series [1] (strain 14 (Vibrio)) lay in the range of 10 to 19 mm; in series [1] (strain 16 (Pseudoalteromonas)), 5 to 9 mm; in series [1] (strain 17 (Gordonia)), 10 to 19 mm; in series [1] (strain 18 (Microbacterium)), 10 to 19 mm; in series [1] (strain 19 (Erythrobacter)), 10 to 19 mm; in series [1] (strain 20), 10 to 19 mm. The zone of inhibition at 25 µg/disc in series [1] (strain 21) fell in the range of 5 to 9 mm; in series [1] (strain 22) it was 10 to 19 mm; in series [1] (strain 24) it was 5 to 9 mm; in series [1] (strain 26) it was 5 to 9 mm; in series [1] (strain 27) it was 20 to 29 mm; in series [1] (strain 28), 10 to 19 mm. Moreover, the zone of inhibition at 25 µg/disc in series [1] (strain 29) and in series [1] (strain 30) was 10 to 19 mm each time. In addition, the zone of inhibition at 50 µg/disc in series [1] (strain 1 (Rhodovulum)) is 5 to 9 mm; in series [1] (strain 2 (Erythrobacter)) it was 10 to 19 mm; in series [1] (strain 3 (Erythrobacter)), 10 to 19 mm; in series [1] (strain 4 (Bacillus)), 20 to 29 mm; in series [1] (strain 6 (Vibrio)), < 5 mm; in series [1] (strain 7 (Vibrio)) it was 10 to 19 mm. The zone of inhibition at 50 µg/disc in series [1] (strain 8 (Bacillus)) lay in the range of 20 to 29 mm; in series [1] (strain 9 (Bacillus)), 10 to 19 mm; in series [1] (strain 10 (Halobacillus)), 10 to 19 mm; in series [1] (strain 11 (Pseudomonas)) it was 20 to 29 mm; in series [1] (strain 12 (Gordonia)), 20 to 29 mm; in series [1] (strain 13 (Bacillus)), 10 to 19 mm. Further, the zone of inhibition at 50 µg/disc in series [1] (strain 14 (Vibrio)) was in the range of 10 to 19 mm; in series [1] (strain 16 (Pseudoalteromonas)), 10 to 19 mm; in series [1] (strain 17 (Gordonia)), 20 to 29 mm; in series [1] (strain 18 (Microbacterium)) it was 10 to 19 mm; in series [1] (strain 19 (Erythrobacter)), 20 to 29 mm; in series [1] (strain 20) it was 10 to 19 mm. The zone of inhibition at 50 µg/disc in series [1] (strain 21) lay in the range of 10 to 19 mm; in series [1] (strain 22), 10 to 19 mm; in series [1] (strain 24) it was 10 to 19 mm; in series [1] (strain 26), 5 to 9 mm; in series [1] (strain 27), 20 to 29 mm; in series [1] (strain 28), 10 to 19 mm. The figures for the zone of inhibition at 50 µg/disc in series [1] (strain 29) and in series [1] (strain 30) were 20 to 29 mm and 10 to 19 mm, respectively. Also, the “Prevention” value in series [2] was 7. Further, the “Change in toxicity … 12L:12D condition” value in the series on barnacle nauplii (setting [4]) is “did not show an appreciable change”. The “Effect of UV on drug toxicity to barnacle nauplii” value (from here on “Effect of UV on drug toxicity”) in the series with barnacle nauplii (setting [6]) is listed as “some increase in toxicity”.

For the compound `CN[C@H]1CC[C@@H](c2ccc(Cl)c(Cl)c2)c2ccccc21.Cl` [ZLT, sertraline hydrochloride], the ED50 in series [2] (barnacle cyprids, 24 hours, concentration that caused 50% settlement inhibition) turned out to be 0.50185 µg/mL. Besides, the “Prevention” value in series [2] was found to be 6. Also, in the series on barnacle nauplii (setting [4]), the “Change in toxicity … 12L:12D condition” value is reported as “not altered by any of the treatments applied” and the “Change in toxicity on ageing in seawater, dark condition” value is recorded as “not altered by any of the treatments applied”. Moreover, the “Effect of UV on drug toxicity” value with barnacle nauplii (setting [6]) is reported as “not altered by any of the treatments applied”. For the same compound, the Solubility entry in series [3] is reported as “slightly soluble in water”.

`CCCCCCCCCC(=O)OC1(c2ccc(Cl)cc2)CCN(CCCC(=O)c2ccc(F)cc2)CC1` [HDL, haloperidol decanoate]: the “Antibiotic activity” value in series [1] (25 or 50 μg per disc, in words) was “did not have any appreciable antibiotic activity against marine bacteria”. Moreover, the “Antibiotic activity” value in series [1] (setting [5]) was determined as 8. For the same compound, in series [2], the IC50 turned out to be 0.119 µg/mL (≈ 0.225 µM) and the “Prevention” value is on record as 3. In addition, the “Change in toxicity … 12L:12D condition” value in the series with barnacle nauplii (setting [4]) is on record as “increased in toxicity”. Besides, in series [3], the Solubility in water is 10 µg/mL (≈ 18.9 µM) and the Solubility result is given as “almost insoluble in water”.

`Cc1nccn1CC1CCc2c(c3ccccc3n2C)C1=O` (stereo not drawn) [ZFN, ondansetron hydrochloride]: the “Antibiotic activity” value in series [1] (25 or 50 μg per disc, in words) was “did not have any appreciable antibiotic activity against marine bacteria”. The “Antibiotic activity” value in series [1] (setting [5]) was found to be 8. Also, in series [2], the IC50 came out at 0.242 µg/mL and the “Prevention” value came to 5. For the same compound, the “Change in toxicity … 12L:12D condition” value in the series with barnacle nauplii (setting [4]) is reported as “increased in toxicity”. For the same compound, the “Effect of UV on drug toxicity” value in the series on barnacle nauplii (setting [6]) was “reduction in toxicity under UV”. The Solubility entry in series [3] was “soluble in saline and water”.
